Assay results from ChEMBL document CHEMBL4627396 (J Med Chem, 2020).
Active and inactive are the calls of the source. The calls are words filed in the database; no cut-off is given here.

Tests used:
[1] = biological target: Death-associated protein kinase 3 (Homo sapiens) (UniProt O43293); conditions: 10 uM
[2] = biological target: Calcium/calmodulin-dependent protein kinase type 1D (Homo sapiens) (UniProt Q8IU85)
[3] = biological target: T1, Tyrosine-protein kinase SYK (Homo sapiens, UniProt P43405)
[4] = biological target: T2, Serine/threonine-protein kinase DCLK1 (Homo sapiens) (UniProt O15075); conditions: 10 uM
T2 sequence (whole entry): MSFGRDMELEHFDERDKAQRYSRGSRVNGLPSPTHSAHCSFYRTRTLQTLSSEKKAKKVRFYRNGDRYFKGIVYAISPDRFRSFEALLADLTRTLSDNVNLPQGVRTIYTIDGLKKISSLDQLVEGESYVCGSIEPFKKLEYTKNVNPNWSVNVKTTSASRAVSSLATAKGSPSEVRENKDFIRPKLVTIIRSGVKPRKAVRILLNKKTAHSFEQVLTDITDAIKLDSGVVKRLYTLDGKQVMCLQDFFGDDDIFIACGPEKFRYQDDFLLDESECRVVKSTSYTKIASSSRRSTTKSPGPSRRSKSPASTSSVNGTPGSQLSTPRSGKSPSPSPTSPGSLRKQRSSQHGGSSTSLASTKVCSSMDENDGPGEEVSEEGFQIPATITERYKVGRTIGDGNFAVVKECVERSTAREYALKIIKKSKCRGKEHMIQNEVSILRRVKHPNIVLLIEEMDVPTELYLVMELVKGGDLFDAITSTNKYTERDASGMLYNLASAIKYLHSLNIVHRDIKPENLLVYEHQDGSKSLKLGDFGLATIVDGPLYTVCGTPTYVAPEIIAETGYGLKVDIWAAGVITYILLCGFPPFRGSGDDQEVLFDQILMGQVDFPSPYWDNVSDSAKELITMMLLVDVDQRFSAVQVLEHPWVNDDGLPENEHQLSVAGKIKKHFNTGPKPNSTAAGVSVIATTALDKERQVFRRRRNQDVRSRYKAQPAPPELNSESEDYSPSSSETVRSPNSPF

[5] = biological target: T3, Calcium/calmodulin-dependent protein kinase type IV (Homo sapiens) (UniProt Q16566); conditions: 10 uM
T3 sequence (whole entry): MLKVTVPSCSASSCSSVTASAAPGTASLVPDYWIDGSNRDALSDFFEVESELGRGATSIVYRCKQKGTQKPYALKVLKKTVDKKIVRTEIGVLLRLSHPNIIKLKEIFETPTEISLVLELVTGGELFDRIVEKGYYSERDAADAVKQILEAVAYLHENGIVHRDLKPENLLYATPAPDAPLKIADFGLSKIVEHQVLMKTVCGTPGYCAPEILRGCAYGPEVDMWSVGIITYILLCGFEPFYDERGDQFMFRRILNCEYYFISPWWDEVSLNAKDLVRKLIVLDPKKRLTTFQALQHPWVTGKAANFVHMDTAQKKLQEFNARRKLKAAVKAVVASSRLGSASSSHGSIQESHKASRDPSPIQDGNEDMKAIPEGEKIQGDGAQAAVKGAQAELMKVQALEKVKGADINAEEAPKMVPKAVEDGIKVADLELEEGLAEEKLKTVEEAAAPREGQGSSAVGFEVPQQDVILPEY

[6] = biological target: Glycogen synthase kinase-3 beta (Homo sapiens) (UniProt P49841); conditions: 10 uM
Chain of Glycogen synthase kinase-3 beta (Homo sapiens) (P49841 whole entry, looked up): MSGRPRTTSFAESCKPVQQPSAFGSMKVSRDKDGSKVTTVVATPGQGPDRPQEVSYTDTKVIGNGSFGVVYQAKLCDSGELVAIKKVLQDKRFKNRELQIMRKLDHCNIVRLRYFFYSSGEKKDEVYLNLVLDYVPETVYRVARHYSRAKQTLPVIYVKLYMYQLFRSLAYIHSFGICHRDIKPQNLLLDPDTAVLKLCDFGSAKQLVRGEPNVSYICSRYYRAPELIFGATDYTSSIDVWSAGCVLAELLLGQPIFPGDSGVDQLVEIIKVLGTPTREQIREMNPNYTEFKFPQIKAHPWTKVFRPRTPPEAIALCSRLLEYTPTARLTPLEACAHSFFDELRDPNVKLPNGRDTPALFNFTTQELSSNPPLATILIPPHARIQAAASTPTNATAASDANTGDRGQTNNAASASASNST

[7] = biological target: T1, Tyrosine-protein kinase SYK; conditions: 10 uM
Mus musculus [8] = test: Antidiabetic activity in diet induced obese C57Bl/6J mouse model assessed as reduction in plasma insulin level at 25 mg/kg, po administered twice daily for 14 days followed by glucose challenge at 4 hrs post last dose and measured after 10 to 90 mins by OGTT; type: functional, organism-based
Cytochrome P450 3A4 = Cytochrome P450 3A4 (Homo sapiens, UniProt P08684); test: Inhibition of CYP3A4 (unknown origin); type: ADME
Chain of Cytochrome P450 3A4 (P08684 whole entry): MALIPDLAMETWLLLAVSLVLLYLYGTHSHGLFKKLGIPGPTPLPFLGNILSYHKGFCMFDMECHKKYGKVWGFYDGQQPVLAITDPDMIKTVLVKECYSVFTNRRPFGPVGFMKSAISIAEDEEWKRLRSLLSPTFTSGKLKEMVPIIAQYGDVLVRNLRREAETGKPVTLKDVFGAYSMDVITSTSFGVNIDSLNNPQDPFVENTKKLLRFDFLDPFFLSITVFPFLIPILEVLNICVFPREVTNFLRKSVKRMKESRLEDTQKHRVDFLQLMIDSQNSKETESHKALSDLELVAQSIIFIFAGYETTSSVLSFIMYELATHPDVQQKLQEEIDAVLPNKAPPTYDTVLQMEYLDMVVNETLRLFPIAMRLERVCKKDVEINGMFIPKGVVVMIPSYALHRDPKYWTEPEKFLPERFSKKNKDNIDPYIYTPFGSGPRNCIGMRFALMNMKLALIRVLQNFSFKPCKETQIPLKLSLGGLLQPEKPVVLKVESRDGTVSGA

[9] = Drug metabolism in rat microsomes; type: ADME, Microsome; conditions: read-out: Drug metabolism
[10] = Drug metabolism in rat plasma assessed as oxidation; type: ADME, cell-free
[11] = Drug metabolism in rat plasma assessed as acetylation; type: ADME, cell-free
[12] = Toxicity in diet induced obese C57Bl/6J mouse model assessed as bloating of gastrointestinal tract at 50 mg/kg, po administered twice daily for 14 days; type: organism-based; conditions: in vivo
[13] = Drug metabolism in human microsomes; type: ADME, Microsome; conditions: read-out: Drug metabolism
Mus musculus [14] = test: Antidiabetic activity in diet induced obese C57Bl/6J mouse model assessed as reduction in plasma insulin level at 25 to 50 mg/kg, po administered 4 hrs prior to glucose stimulation and measured after 10 to 90 mins by OGTT; type: functional, organism-based
Mus musculus [15] = test: Antidiabetic activity in diet induced obese C57Bl/6J mouse model assessed as reduction in blood glucose level at 25 to 50 mg/kg, po administered 4 hrs prior to glucose stimulation and measured after 10 to 90 mins by OGTT; type: functional, organism-based
Cytochrome P450 1A2 = biological target: T4, Cytochrome P450 1A2 (Homo sapiens, UniProt P05177); test: Inhibition of CYP1A2 (unknown origin); type: ADME
T4 sequence (P05177 whole entry): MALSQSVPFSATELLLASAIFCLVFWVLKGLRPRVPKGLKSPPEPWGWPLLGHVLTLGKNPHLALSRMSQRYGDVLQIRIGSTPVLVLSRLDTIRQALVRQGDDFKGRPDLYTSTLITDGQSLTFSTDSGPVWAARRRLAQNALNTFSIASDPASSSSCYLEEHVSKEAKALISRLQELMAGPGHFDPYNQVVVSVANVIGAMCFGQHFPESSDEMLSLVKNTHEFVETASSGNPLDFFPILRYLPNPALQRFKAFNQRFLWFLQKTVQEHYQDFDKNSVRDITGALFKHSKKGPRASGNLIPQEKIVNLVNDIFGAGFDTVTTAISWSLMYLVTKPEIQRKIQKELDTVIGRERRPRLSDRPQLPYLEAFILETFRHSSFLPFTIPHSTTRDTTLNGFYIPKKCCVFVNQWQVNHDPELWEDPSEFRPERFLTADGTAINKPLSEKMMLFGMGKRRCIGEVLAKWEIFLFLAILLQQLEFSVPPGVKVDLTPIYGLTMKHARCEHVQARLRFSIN

[16] = Drug excretion in Crl:CD Sprague-Dawley rat urine; type: ADME; conditions: in vivo
[17] = Drug metabolism in rat plasma assessed as amide hydrolysis; type: ADME, cell-free
Mus musculus [18] = test: Antidiabetic activity in diet induced obese C57Bl/6J mouse model assessed as reduction in baseline blood glucose level at 25 mg/kg, po administered twice daily for 14 days followed by glucose challenge at 4 hrs post last dose and measured after 10 to 90 mins by OGTT; type: functional, organism-based
Mus musculus [19] = test: Antidiabetic activity in diet induced obese C57Bl/6J mouse model assessed as change in blood glucose AUC at 25 mg/kg, po administered twice daily for 14 days followed by glucose challenge at 4 hrs post last dose and measured after 10 to 90 mins by OGTT; type: functional, organism-based
Cytochrome P450 2D6 = Cytochrome P450 2D6 (Homo sapiens, UniProt P10635); test: Inhibition of CYP2D6 (unknown origin); type: ADME
Chain of Cytochrome P450 2D6 (P10635 whole entry): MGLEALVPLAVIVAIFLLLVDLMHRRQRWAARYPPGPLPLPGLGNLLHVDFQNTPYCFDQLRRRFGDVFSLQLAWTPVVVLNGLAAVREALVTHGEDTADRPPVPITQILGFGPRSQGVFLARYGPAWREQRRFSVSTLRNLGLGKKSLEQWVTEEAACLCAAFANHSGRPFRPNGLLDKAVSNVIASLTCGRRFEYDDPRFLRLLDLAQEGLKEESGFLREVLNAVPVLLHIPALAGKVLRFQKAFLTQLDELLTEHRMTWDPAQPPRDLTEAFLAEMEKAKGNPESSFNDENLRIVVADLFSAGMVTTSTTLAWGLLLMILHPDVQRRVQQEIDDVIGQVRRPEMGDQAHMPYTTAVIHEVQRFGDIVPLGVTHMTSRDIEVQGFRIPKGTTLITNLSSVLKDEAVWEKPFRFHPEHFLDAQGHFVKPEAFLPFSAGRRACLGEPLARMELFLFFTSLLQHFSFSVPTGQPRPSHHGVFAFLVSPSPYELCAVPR

Mus musculus [20] = test: Antidiabetic activity in diet induced obese C57Bl/6J mouse model assessed as reduction in peak blood glucose level at 25 mg/kg, po administered twice daily for 14 days followed by glucose challenge at 4 hrs post last dose and measured after 10 to 90 mins by OGTT; type: functional, organism-based
[21] = Drug metabolism in rat hepatocytes assessed per million cells; type: ADME, cell-based, Hepatocyte
[22] = Drug metabolism in human hepatocytes assessed per million cells; type: ADME, cell-based, Hepatocyte
[23] = Toxicity in NSG mouse assessed as adverse effect at 40 mg/kg administered once daily for 21 days; type: organism-based; conditions: in vivo
[24] = biological target: Phosphatidylinositol 4-phosphate 5-kinase type-1 gamma (Homo sapiens, UniProt O60331)
Chain of Phosphatidylinositol 4-phosphate 5-kinase type-1 gamma (O60331 whole entry): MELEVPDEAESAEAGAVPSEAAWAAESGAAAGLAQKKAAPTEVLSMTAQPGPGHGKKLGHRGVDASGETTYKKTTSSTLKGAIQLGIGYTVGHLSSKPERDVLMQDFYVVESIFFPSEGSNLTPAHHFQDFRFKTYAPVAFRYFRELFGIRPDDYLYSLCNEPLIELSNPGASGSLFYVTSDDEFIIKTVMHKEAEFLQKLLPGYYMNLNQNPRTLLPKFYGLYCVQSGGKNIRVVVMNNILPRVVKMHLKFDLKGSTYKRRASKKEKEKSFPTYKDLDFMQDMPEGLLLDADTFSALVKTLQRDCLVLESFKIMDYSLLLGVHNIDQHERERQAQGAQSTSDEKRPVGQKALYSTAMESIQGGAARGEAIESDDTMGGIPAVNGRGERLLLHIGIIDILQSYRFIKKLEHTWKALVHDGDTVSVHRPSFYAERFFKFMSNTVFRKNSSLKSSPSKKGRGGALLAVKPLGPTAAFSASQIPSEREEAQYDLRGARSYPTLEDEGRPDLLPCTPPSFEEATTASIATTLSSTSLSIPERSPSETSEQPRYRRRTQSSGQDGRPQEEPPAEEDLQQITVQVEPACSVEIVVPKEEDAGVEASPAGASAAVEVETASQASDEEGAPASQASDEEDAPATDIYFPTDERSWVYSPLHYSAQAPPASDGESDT

[25] = Drug metabolism in mouse microsomes; type: ADME, Microsome; conditions: read-out: Drug metabolism
in vivo = conditions: Crl:CD Sprague-Dawley, rat, iv, 1 mg/kg
[26] = biological target: T5, Dual specificity mitogen-activated protein kinase kinase 5 (Homo sapiens, UniProt Q13163)
T5 sequence (Q13163 whole entry): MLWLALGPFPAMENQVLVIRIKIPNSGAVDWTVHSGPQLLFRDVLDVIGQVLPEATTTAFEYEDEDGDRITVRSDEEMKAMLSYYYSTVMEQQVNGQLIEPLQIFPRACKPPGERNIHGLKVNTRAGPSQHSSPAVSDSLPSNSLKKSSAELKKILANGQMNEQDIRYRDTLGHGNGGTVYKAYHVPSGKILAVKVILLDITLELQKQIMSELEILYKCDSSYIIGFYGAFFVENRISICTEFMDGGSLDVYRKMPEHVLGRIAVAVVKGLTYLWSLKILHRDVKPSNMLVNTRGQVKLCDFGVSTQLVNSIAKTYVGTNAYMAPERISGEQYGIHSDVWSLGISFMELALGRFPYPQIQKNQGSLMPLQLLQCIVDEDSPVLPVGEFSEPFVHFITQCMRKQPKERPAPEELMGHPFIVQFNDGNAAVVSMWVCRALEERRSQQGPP

[27] = biological target: Mitogen-activated protein kinase kinase kinase 11 (Homo sapiens, UniProt Q16584)
Chain of Mitogen-activated protein kinase kinase kinase 11 (Q16584 whole entry): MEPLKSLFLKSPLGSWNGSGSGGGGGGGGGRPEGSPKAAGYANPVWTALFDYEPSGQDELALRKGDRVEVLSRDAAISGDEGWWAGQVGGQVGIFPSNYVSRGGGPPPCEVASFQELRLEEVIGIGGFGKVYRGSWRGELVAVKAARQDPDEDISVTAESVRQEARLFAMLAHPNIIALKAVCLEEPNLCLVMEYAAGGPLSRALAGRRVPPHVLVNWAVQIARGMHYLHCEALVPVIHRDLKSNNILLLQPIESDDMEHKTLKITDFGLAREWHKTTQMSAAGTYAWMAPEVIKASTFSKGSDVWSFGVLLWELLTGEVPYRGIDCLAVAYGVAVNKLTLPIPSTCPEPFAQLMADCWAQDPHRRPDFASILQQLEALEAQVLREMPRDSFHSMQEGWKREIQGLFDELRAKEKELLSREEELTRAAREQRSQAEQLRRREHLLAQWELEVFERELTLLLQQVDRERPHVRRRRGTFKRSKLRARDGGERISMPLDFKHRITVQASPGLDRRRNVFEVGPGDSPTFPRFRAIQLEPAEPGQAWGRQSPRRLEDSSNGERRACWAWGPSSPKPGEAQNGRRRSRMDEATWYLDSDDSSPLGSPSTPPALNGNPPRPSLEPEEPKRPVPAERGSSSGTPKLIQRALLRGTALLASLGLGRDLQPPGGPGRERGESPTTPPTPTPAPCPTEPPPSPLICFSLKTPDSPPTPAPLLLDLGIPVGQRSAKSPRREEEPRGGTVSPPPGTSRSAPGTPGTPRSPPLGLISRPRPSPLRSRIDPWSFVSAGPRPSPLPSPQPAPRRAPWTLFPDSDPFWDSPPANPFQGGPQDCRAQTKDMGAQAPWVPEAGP

[28] = biological target: T6, Receptor-interacting serine/threonine-protein kinase 4 (Homo sapiens, UniProt P57078)
T6 sequence (P57078 whole entry): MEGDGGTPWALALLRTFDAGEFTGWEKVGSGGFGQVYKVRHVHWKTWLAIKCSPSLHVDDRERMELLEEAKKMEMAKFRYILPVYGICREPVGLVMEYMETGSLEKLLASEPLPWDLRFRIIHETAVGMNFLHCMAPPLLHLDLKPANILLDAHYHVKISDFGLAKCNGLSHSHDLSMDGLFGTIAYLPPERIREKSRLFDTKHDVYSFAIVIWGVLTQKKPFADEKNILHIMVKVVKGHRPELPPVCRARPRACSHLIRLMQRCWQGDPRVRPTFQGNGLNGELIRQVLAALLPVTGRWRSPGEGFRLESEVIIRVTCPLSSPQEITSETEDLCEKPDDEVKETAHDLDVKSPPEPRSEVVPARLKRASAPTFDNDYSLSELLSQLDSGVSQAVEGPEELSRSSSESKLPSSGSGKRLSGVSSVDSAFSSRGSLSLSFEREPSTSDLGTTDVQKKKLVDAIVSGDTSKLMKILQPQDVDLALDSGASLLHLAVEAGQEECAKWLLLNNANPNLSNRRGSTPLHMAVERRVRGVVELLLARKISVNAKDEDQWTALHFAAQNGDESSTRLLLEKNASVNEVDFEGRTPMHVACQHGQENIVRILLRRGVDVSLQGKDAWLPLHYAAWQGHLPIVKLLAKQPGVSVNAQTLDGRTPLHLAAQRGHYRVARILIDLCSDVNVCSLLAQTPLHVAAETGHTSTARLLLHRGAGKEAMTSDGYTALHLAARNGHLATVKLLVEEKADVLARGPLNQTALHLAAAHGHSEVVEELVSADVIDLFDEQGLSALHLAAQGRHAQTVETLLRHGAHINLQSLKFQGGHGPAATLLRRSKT

Chain of Death-associated protein kinase 3 (Homo sapiens) (O43293 whole entry, looked up): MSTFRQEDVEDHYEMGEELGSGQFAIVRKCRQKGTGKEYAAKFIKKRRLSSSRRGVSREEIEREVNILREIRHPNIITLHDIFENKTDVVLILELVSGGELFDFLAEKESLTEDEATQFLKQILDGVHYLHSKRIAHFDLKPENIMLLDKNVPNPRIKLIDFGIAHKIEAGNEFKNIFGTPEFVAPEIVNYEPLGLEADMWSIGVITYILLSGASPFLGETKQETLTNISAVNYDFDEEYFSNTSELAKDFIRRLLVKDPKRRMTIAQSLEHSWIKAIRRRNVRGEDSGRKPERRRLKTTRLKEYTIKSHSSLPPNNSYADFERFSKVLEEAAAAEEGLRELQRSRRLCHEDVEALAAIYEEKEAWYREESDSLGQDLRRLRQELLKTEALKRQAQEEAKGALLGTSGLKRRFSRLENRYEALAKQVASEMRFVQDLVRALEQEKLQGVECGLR
Chain of Calcium/calmodulin-dependent protein kinase type 1D (Homo sapiens) (Q8IU85 whole entry, looked up): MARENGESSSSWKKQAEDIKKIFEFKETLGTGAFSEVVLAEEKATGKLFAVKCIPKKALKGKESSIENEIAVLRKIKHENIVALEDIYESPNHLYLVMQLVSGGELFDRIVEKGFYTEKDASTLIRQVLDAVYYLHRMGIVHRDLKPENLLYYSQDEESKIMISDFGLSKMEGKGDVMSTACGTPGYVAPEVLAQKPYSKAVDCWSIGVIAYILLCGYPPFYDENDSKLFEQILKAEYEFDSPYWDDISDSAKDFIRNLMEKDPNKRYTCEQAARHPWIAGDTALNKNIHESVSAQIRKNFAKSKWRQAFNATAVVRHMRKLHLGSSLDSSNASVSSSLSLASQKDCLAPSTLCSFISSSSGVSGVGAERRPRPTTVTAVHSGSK

For `NCCNc1ncc(C(N)=O)c(Nc2cccc(C(F)(F)F)c2)n1`, the ΔTm [1] was 4.05 °C, the ΔTm [2] was 5.44 °C and the IC50 [3] was 0.007 µM. For the same compound, the ΔTm [4] was 0.11 °C, the ΔTm [5] was 1.34 °C and the ΔTm [6] was 3.4 °C. For the same compound, the ΔTm [7] was 7.51 °C.
In the case of `CC(C)(C#N)c1cc(Nc2nc(N3CCC[C@H](N)C3)ncc2C(N)=O)cc(C(C)(C)C#N)c1`, the Activity (Mus musculus [8]) is reported as “Active”, the IC50 (Cytochrome P450 3A4) is reported as > 20 µM and the microsomal CLint [9] is reported as < 1 µL/min/mg. The Drug metabolism [10] was “Metabolite_Detected”, the Drug metabolism [11] was “Metabolite_Detected” and the Activity [12] was “Toxic”. For the same compound, the microsomal CLint [13] was 13 µL/min/mg, the Activity (Mus musculus [14]) was “Active” and the Activity (Mus musculus [15]) was “Active”. For the same compound, the IC50 (Cytochrome P450 1A2) was > 20 µM, the Drug excretion [16] was “Metabolite_Detected” and the Drug metabolism [17] was “Metabolite_Detected”. The Activity (Mus musculus [18]) was “Active”, the Activity (Mus musculus [19]) was “inactive” and the IC50 (Cytochrome P450 2D6) was > 20 µM. For the same compound, the Activity (Mus musculus [20]) was “Active” and the Drug metabolism [21] was 11 µL/min.
With `CC(C)c1cc(Nc2nc(N3CCC[C@H](N)C3)ncc2C(N)=O)cc(C(C)C)n1` the IC50 (Cytochrome P450 3A4) was > 20 µM, the Drug metabolism [22] was 19 µL/min and the Activity [23] was “Non-Toxic”. For the same compound, the IC50 [24] was 11.2 µM, the microsomal CLint [9] was 3 µL/min/mg and the microsomal CLint [25] was 6 µL/min/mg. It also gave a Vd (in vivo) of 18.5 L/kg, an IC50 [26] of 0.025 µM and an IC50 [27] of 2.75 µM. For the same compound, the IC50 (Cytochrome P450 1A2) was > 20 µM, the IC50 [28] was 5.69 µM and the IC50 (Cytochrome P450 2D6) was > 20 µM.
